Structures are written as SMILES. A value given as a limit tells only on which side of the number the result lay.

One test addresses human SCD1 (Homo sapiens (Human), UniProt O00767). Kind of test: Yeast growth assay, strain expressing human SCD1 as the sole desaturase (reduced growth as surrogate for SCD inhibition). The format is cell-based. The note with it: yeast with OLE1 deleted expressing human SCD1 from a plasmid; growth read as OD600 after 40 h at 30° C.; top drug concentration 33.3 μM. The essentials: (§1)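 Human SCD1 or SCD5 expressed from a plasmid in OLE1-deleted yeast as the sole desaturase. Cells washed free of Tween and fatty acids, grown with compound in SD-Ura glucose medium 40 h at 30 °C; growth measured as OD600, reduced growth taken as SCD inhibition.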

The target in a further test is human SCD5 (Homo sapiens (Human), UniProt Q86SK9). Kind of test: Yeast growth assay, strain expressing human SCD5 as the sole desaturase (reduced growth as surrogate for SCD inhibition). The format is cell-based. The note with it: yeast with OLE1 deleted expressing human SCD5 from a plasmid; growth read as OD600 after 40 h at 30° C.; top drug concentration 33.3 μM. The essentials: as §1
Chain of human SCD5 (Q86SK9 whole entry): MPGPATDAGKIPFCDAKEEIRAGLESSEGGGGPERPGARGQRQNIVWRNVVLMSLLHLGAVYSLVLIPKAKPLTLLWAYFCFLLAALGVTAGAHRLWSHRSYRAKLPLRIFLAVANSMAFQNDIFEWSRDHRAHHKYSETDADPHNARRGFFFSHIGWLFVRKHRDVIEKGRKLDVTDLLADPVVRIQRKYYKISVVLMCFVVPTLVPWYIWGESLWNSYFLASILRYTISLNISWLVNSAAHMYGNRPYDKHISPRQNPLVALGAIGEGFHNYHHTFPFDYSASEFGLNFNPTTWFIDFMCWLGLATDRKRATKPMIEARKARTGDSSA

Chain of human SCD1 (O00767 whole entry): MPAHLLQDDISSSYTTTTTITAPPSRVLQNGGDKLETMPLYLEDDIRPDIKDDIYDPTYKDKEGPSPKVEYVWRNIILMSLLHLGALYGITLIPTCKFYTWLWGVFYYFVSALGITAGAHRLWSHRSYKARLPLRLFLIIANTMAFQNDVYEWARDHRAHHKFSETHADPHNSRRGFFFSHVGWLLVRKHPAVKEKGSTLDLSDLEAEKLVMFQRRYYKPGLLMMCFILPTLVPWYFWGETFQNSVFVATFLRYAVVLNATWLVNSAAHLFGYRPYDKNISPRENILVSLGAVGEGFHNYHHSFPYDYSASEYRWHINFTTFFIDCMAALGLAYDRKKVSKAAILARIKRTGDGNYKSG

As usually defined, the IC50 is the concentration that inhibits the measured activity by half. Consider `N#Cc1cccnc1C1CCCN1C(=O)c1cc(-c2ccc3c(c2)OCO3)on1` (centres unmarked) [Compound 448], for which the IC50 on human SCD1 and on human SCD5 was over 45 µM throughout.

Regarding `O=C(c1noc2cc(Br)ccc12)N1CCC[C@H]1c1ccccc1` [Compound 449], the results for the IC50 against human SCD1 and on human SCD5 were over 45 µM and 41.7 µM, respectively.

Consider `O=C(c1cc(-c2ccc3nccnc3c2)on1)N1CCC[C@H]1c1ccccc1` [Compound 450], for which the IC50 against human SCD1 and on human SCD5 was over 45 µM throughout.

In the case of `O=C(c1cc(-c2ccc(=O)[nH]c2)on1)N1CCC[C@H]1c1ccccc1` [Compound 451], the IC50 against human SCD1 is 37.2 µM; against human SCD5 it was over 45 µM.

For the compound `O=C(Nc1ccccc1)C1CCCN1C(=O)c1cc(-c2ccc3c(c2)OCO3)on1` (centres unmarked) [Compound 455], the IC50 against human SCD1 and at human SCD5 was over 45 µM throughout.

As to `N#Cc1ccc2c(C(=O)N3CCC[C@H]3c3ccccc3)noc2c1` [Compound 456], the IC50 against human SCD1 and on human SCD5 was over 45 µM throughout.

With `O=C(c1cc(-c2ccc3c(c2)OCO3)on1)N1CCCC1c1ncccc1F` (centres unmarked) [Compound 457], the IC50 at human SCD1 and on human SCD5 was over 45 µM in each case.

Take `Cc1nn(C)c2cc(-c3cc(C(=O)N4CCCC4c4ccnnc4)no3)ccc12` (centres unmarked) [Compound 458]: the IC50 at human SCD1 and on human SCD5 was over 45 µM in each case.

Consider `Cc1nn(C)c2cc(-c3cc(C(=O)N4CCCC4c4cccnn4)no3)ccc12` (centres unmarked) [Compound 462], for which the half-inhibitory concentration (IC50) against human SCD1 and against human SCD5 was over 45 µM throughout.

`Cc1nn(C)c2cc(-c3conc3CN3C(=O)OCC3c3ccccc3)ccc12` (centres unmarked) [Compound 464]: the IC50 at human SCD1 and at human SCD5 was over 45 µM in each case.
